Results reported in PubChem BioAssay AID248 (DTP/NCI, 2004).
Where “and” joins values, the source holds several entries; their conditions need not be identical. Equal entries are not always repeated. Toxic doses and inconclusive results are not listed. Rule as the data show it: active = T/C of 150% or more; inactive = T/C below 125%.

System: L1210 leukemia ip in BDF1 mice, survival T/C
Assay: NCI In Vivo Anticancer Drug Screen. Data for tumor model L1210 Leukemia (intraperitoneal) in B6D2F1 (BDF1) mice
Conditions: endpoint: mean survival time, higher = longer survival
Procedure, shortened: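 Ratio derived from survival: compound-dosed mice over vehicle-dosed mice, all bearing a transplantable tumor.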

[1] = dose: 100.0 mg/kg/injection, schedule: Q04DX003 (ip), vehicle: acetone
[2] = dose: 100.0 mg/kg/injection, schedule: Q01DX009 (ip), vehicle: Klucel (hydroxypropylcellulose) (HPC)
[3] = dose: 100.0 mg/kg/injection, schedule: Q04DX003 (ip), vehicle: Klucel (hydroxypropylcellulose) (HPC)
[4] = dose: 200.0 mg/kg/injection, schedule: Q01DX009 (ip), vehicle: Klucel (hydroxypropylcellulose) (HPC)
[5] = dose: 200.0 mg/kg/injection, schedule: Q04DX003 (ip), vehicle: Klucel (hydroxypropylcellulose) (HPC)
[6] = dose: 400.0 mg/kg/injection, schedule: Q01DX009 (ip), vehicle: Klucel (hydroxypropylcellulose) (HPC)
[7] = dose: 400.0 mg/kg/injection, schedule: Q04DX003 (ip), vehicle: Klucel (hydroxypropylcellulose) (HPC)
[8] = dose: 100.0 mg/kg/injection, schedule: Q04DX002 (ip), vehicle: saline with Tween-80
[9] = dose: 200.0 mg/kg/injection, schedule: Q04DX002 (ip), vehicle: saline with Tween-80
[10] = dose: 400.0 mg/kg/injection, schedule: Q04DX002 (ip), vehicle: saline with Tween-80
[11] = dose: 100.0 mg/kg/injection, schedule: Q04DX002 (ip), vehicle: Klucel (hydroxypropylcellulose) (HPC)
[12] = dose: 200.0 mg/kg/injection, schedule: Q04DX002 (ip), vehicle: Klucel (hydroxypropylcellulose) (HPC)
[13] = dose: 400.0 mg/kg/injection, schedule: Q04DX002 (ip), vehicle: Klucel (hydroxypropylcellulose) (HPC)
[14] = dose: 100.0 mg/kg/injection, schedule: Q04DX003 (ip), vehicle: saline with Tween-80
[15] = dose: 100.0 mg/kg/injection, schedule: Q04DX002 (ip), vehicle: saline
[16] = dose: 200.0 mg/kg/injection, schedule: Q04DX003 (ip), vehicle: saline with Tween-80
[17] = dose: 400.0 mg/kg/injection, schedule: Q04DX003 (ip), vehicle: saline with Tween-80
[18] = dose: 100.0 mg/kg/injection, schedule: Q01DX009 (ip), vehicle: saline with Tween-80
[19] = dose: 200.0 mg/kg/injection, schedule: Q01DX009 (ip), vehicle: saline with Tween-80
[20] = dose: 50.0 mg/kg/injection, schedule: Q01DX009 (ip), vehicle: Klucel (hydroxypropylcellulose) (HPC)
[21] = dose: 400.0 mg/kg/injection, schedule: Q01DX009 (ip), vehicle: saline with Tween-80

Measured: T/C

O=[N+]([O-])c1ccc(Cl)c(OCCCOc2ccc(S(=O)(=O)F)cc2)c1
inactive: dose: 100.0 mg/kg/injection, schedule: Q01DX001 (ip), vehicle: saline with Tween-80 96 % of control | dose: 200.0 mg/kg/injection, schedule: Q01DX001 (ip), vehicle: saline with Tween-80 87 % of control | dose: 400.0 mg/kg/injection, schedule: Q01DX001 (ip), vehicle: saline with Tween-80 90 % of control

CC1CCN1c1ccccc1 (configuration not stated)
inactive: [1] 88 % of control

CCOC(=O)C(C(C)=O)C(c1ccc([N+](=O)[O-])cc1)C(C(C)=O)C(=O)OCC (configuration not stated)
inactive: dose: 3.12 mg/kg/injection, schedule: Q01DX009 (ip), vehicle: saline 86 % of control | dose: 6.25 mg/kg/injection, schedule: Q01DX009 (ip), vehicle: saline 88 % of control | dose: 12.5 mg/kg/injection, schedule: Q01DX009 (ip), vehicle: saline 89 % of control | dose: 25.0 mg/kg/injection, schedule: Q01DX009 (ip), vehicle: saline 86 % of control

O=S(=O)(NC1CCC(CC2CCCCC2)CC1)c1ccccc1 (configuration not stated)
inactive: [2] 101 % of control | [3] 96 % of control | [4] 104 % of control | [5] 97 % of control | [6] 106 % of control | [7] 94 % of control

C/C(=N/NC(N)=S)c1cccc(C(F)(F)F)c1
inactive: dose: 37.5 mg/kg/injection, schedule: Q01DX009 (ip), vehicle: Klucel (hydroxypropylcellulose) (HPC) 97 % of control | dose: 75.0 mg/kg/injection, schedule: Q01DX009 (ip), vehicle: Klucel (hydroxypropylcellulose) (HPC) 95 % of control

Cc1ccc(/C=N\NC(=O)C(O)C(O)C(O)C(O)CO)cc1 (configuration not stated)
inactive: [8] 91 % of control | [9] 91 % of control | [10] 109 % of control

O=c1[nH]c(CCCc2ccccc2)c(Br)c(=O)[nH]1
inactive: [11] 100 % of control | [12] 100 % of control | [13] 92 % of control

CCC(=O)OCC1CCCO1 (configuration not stated)
inactive: [2] 103 % of control | [4] 103 % of control | [6] 101 % of control

CCCCOP(=O)(Cc1ccc(Cl)cc1Cl)OCCCC
inactive: [8] 109 % of control | [9] 109 % of control | [10] 98 % of control

CN1CCN(C2CCCCc3ccccc32)CC1 (configuration not stated)
inactive: [14] 95 % of control

O=C(NCP(=O)(O)O)c1cccnc1
inactive: dose: 100.0 mg/kg/injection, schedule: Q04DX003 (ip), vehicle: saline sonified 94 % of control | dose: 200.0 mg/kg/injection, schedule: Q04DX003 (ip), vehicle: saline sonified 100 % of control | dose: 400.0 mg/kg/injection, schedule: Q04DX003 (ip), vehicle: saline sonified 102 % of control

CN(C)CCNCC(Cc1ccccc1)c1ccccc1 (configuration not stated)
inactive: dose: 25.0 mg/kg/injection, schedule: Q04DX002 (ip), vehicle: saline 92 % of control | dose: 50.0 mg/kg/injection, schedule: Q04DX002 (ip), vehicle: saline 92 % of control | [15] 100 % of control and 89 % of control

CC12CC(C(=O)c3ccccc3)C(C)(C1=O)C(c1ccccc1)=C2c1ccccc1 (configuration not stated)
inactive: [14] 96 % of control | [16] 89 % of control | [17] 89 % of control

COc1ccc(C)cc1NC(=O)SCCSC(=O)Nc1cc(C)ccc1OC
inactive: [18] 100 % of control | [19] 87 % of control

Clc1ccccc1C=NC1CCCCC1
inactive: [8] 96 % of control | [9] 96 % of control | [10] 93 % of control

Cc1cccc(C)c1CNC(=O)NCCCl
inactive: [3] 98 % of control | [5] 95 % of control | [7] 104 % of control

CC(C)N1CCC1C (configuration not stated)
inactive: [1] 96 % of control

CCN(C(C)(C)C(SSSC(c1ccc(Cl)cc1)C(C)(C)N(CC)S(C)(=O)=O)c1ccc(Cl)cc1)S(C)(=O)=O (configuration not stated)
inactive: [18] 91 % of control

NN(c1ccccc1)c1ccc2ccccc2c1
inactive: [20] 115 % of control | [2] 100 % of control | [3] 93 % of control | [4] 103 % of control | [5] 93 % of control | [7] 86 % of control

O=C1c2cccc3cc([N+](=O)[O-])cc(c23)C(=O)N1C(CO)(CO)CO
inactive: [15] 101 % of control | dose: 200.0 mg/kg/injection, schedule: Q04DX002 (ip), vehicle: saline 101 % of control | dose: 400.0 mg/kg/injection, schedule: Q04DX002 (ip), vehicle: saline 99 % of control

C=C(C)CC1(CC2SCCCS2)SCCCS1
inactive: dose: 25.0 mg/kg/injection, schedule: Q04DX002 (ip), vehicle: saline with Tween-80 98 % of control | dose: 50.0 mg/kg/injection, schedule: Q04DX002 (ip), vehicle: saline with Tween-80 106 % of control | [8] 88 % of control | [9] 98 % of control

Nc1nc(N)c(CCCCc2ccccc2)c(N)n1
inactive: [20] 87 % of control | dose: 50.0 mg/kg/injection, schedule: Q01DX Z (ip), vehicle: carboxymethylcellulose (CMC) 95 % of control | [2] 95 % of control

CC1CCC(C(C)C)C(NCCO)C1 (configuration not stated)
inactive: dose: 18.8 mg/kg/injection, schedule: Q04DX003 (ip), vehicle: saline 102 % of control | dose: 37.5 mg/kg/injection, schedule: Q04DX003 (ip), vehicle: saline 100 % of control | dose: 75.0 mg/kg/injection, schedule: Q01DX001 (ip), vehicle: saline 103 % of control | dose: 75.0 mg/kg/injection, schedule: Q04DX003 (ip), vehicle: saline 100 % of control

O=C(Nc1ccc(Cl)cc1C(F)(F)F)OCCOc1ccc(-c2ccccc2)cc1
inactive: [18] 98 % of control | [19] 96 % of control | [21] 96 % of control

Cc1ccc(C(=O)/C=C(\C(=O)c2ccccc2)c2ccccc2)cc1C
inactive: [11] 97 % of control | [12] 93 % of control | [13] 97 % of control

C(Cc1ccccc1)=C1SCCCS1
inactive: [14] 99 % of control | [16] 96 % of control | [17] 96 % of control

Cc1ccc(S(=O)(=O)NCCN(C2CCCCC2)S(=O)(=O)c2ccc(C)cc2)cc1
inactive: dose: 15.0 mg/kg/injection, schedule: Q01DX001 (ip), vehicle: carboxymethylcellulose (CMC) 96 % of control | dose: 30.0 mg/kg/injection, schedule: Q01DX001 (ip), vehicle: carboxymethylcellulose (CMC) 96 % of control

C=COCCN1C(=O)c2ccccc2C1=O
inactive: [11] 102 % of control | [12] 120 % of control | [13] 106 % of control

O=S(=O)(c1ccc(Cl)cc1)c1ccc(Cl)cc1
inactive: dose: 100.0 mg/kg/injection, schedule: Q01DX009 (ip), vehicle: saline 91 % of control | [14] 102 % of control | dose: 100.0 mg/kg/injection, schedule: Q04DX003 (ip), vehicle: saline 104 % of control | dose: 200.0 mg/kg/injection, schedule: Q01DX009 (ip), vehicle: saline 95 % of control | [16] 107 % of control | dose: 200.0 mg/kg/injection, schedule: Q04DX003 (ip), vehicle: saline 95 % of control | dose: 400.0 mg/kg/injection, schedule: Q01DX009 (ip), vehicle: saline 93 % of control | [17] 95 % of control | dose: 400.0 mg/kg/injection, schedule: Q04DX003 (ip), vehicle: saline 106 % of control

CCCCCCC[n+]1ccc(C(=O)c2ccccc2)cc1
inactive: dose: 75.0 mg/kg/injection, schedule: Q01DX001 (ip), vehicle: carboxymethylcellulose (CMC) 96 % of control | dose: 300.0 mg/kg/injection, schedule: Q01DX001 (ip), vehicle: carboxymethylcellulose (CMC) 105 % of control

c1ccc(-c2nc3cnccc3o2)cc1
inactive: dose: 12.5 mg/kg/injection, schedule: Q01DX009 (ip), vehicle: Klucel (hydroxypropylcellulose) (HPC) 92 % of control | dose: 25.0 mg/kg/injection, schedule: Q01DX009 (ip), vehicle: Klucel (hydroxypropylcellulose) (HPC) 94 % of control | [20] 94 % of control | [3] 106 % of control | [5] 99 % of control | [7] 94 % of control

O=C(CCC(C(=O)c1ccccc1)c1ccccc1)c1ccccc1 (configuration not stated)
inactive: [18] 104 % of control | [19] 87 % of control | [21] 88 % of control
